≈ marks a conversion by molar mass, not a printed value. Where a SMILES comes first, the peptide text is derived from it. Bridges are numbered along the chain shown (N, C = ends).
Key:
E. coli 08040726 [1] = assay: MIC, two-fold broth microdilution (second listing of the strain number); assay type: cell-based; settings: Gram-negative, MH broth, 37 °C, 18 h, mean of three independent experiments in duplicates
Protocol: (§1) A two-fold broth microdilution method described in our previous paper was used to determine the antimicrobial activities of parental and hybrid peptides. More than 30 strains including Gram-negative bacteria, Gram-positive bacteria and fungi were used in the current assay, in which the standard strains were stored in our lab and the clinical strains were collected from local hospitals. Briefly, bacteria were incubated in Mueller-Hinton broth (MH broth) at 37 °C to exponential phase and diluted to 10^6 CFU/mL. A serial dilution of peptide sample were prepared in 96-well microtiter plates (50 μL) and mixed with equal volume of microbial inoculums (50 μL). The plate was slowly shaken in the microbial incubator, and measured at A595 after incubation at 37 °C for 18 h. The minimal concentrations at which no microbial growth occurred were recorded as MIC (minimal inhibitory concentration) values. The traditional antibiotic ampicillin was used as positive control. The results are shown in an average of the MICs obtained from three independent experiments.

Aeromonas sobria = assay: microbe, parasite or virus in culture; assay type: cell-based; settings: 18 h
Protocol: as §1

Aeromonas veronii = assay: microbe, parasite or virus in culture; assay type: cell-based; settings: 18 h
Protocol: as §1

[2] = test system: Bacillus subtilis 08042313; assay: microbe, parasite or virus in culture; assay type: cell-based; settings: 08042313, 18 h
Protocol: as §1

[3] = test system: Candida albicans 08030102; assay: microbe, parasite or virus in culture; assay type: cell-based; settings: 08030102, 18 h
Protocol: as §1

Candida glabrata 08A802 = assay: microbe, parasite or virus in culture; assay type: cell-based; settings: 08A802, 18 h
Protocol: as §1

E. Coli 08032823 = assay: microbe, parasite or virus in culture; assay type: cell-based; settings: 08032823, 18 h
Protocol: as §1

Edwardsiella tarda = assay: microbe, parasite or virus in culture; assay type: cell-based; settings: Aquatic pathogenic bacteria; two-fold broth microdilution, 37 °C, 18 h; mean of three independent experiments in duplicates
Protocol: as §1

[4] = test system: Enterococcus faecium 08052315; assay: microbe, parasite or virus in culture; assay type: cell-based; settings: 08052315, 18 h
Protocol: as §1

[5] = test system: Escherichia coli ATCC25922; assay: microbe, parasite or virus in culture; assay type: cell-based; settings: ATCC25922, 18 h
Protocol: as §1

K. Pneumoniae 08031012 = assay: microbe, parasite or virus in culture; assay type: cell-based; settings: Gram-negative; two-fold broth microdilution, MH broth, 37 °C, 18 h; mean of three independent experiments in duplicates
Protocol: as §1

K. Pneumoniae 08040202 = assay: microbe, parasite or virus in culture; assay type: cell-based; settings: Gram-negative; two-fold broth microdilution, MH broth, 37 °C, 18 h; mean of three independent experiments in duplicates
Protocol: as §1

[6] = test system: Nocardia asteroides 08052412; assay: microbe, parasite or virus in culture; assay type: cell-based; settings: 18 h
Protocol: as §1

P. Aeruginosa 08021015 = assay: microbe, parasite or virus in culture; assay type: cell-based; settings: Gram-negative; two-fold broth microdilution, MH broth, 37 °C, 18 h; mean of three independent experiments in duplicates
Protocol: as §1

Proteus mirabilis 1376 = assay: microbe, parasite or virus in culture; assay type: cell-based; settings: Gram-negative; two-fold broth microdilution, MH broth, 37 °C, 18 h; mean of three independent experiments in duplicates
Protocol: as §1

S. Aureus 08032615 = assay: microbe, parasite or virus in culture; assay type: cell-based; settings: Gram-positive; two-fold broth microdilution, MH broth, 37 °C, 18 h; mean of three independent experiments in duplicates
Protocol: as §1

S. Aureus 08032706 = assay: microbe, parasite or virus in culture; assay type: cell-based; settings: Gram-positive; two-fold broth microdilution, MH broth, 37 °C, 18 h; mean of three independent experiments in duplicates
Protocol: as §1

S. Aureus 08032810 = assay: microbe, parasite or virus in culture; assay type: cell-based; settings: Gram-positive; two-fold broth microdilution, MH broth, 37 °C, 18 h; mean of three independent experiments in duplicates
Protocol: as §1

S. Maltophilia 090223 = assay: microbe, parasite or virus in culture; assay type: cell-based; settings: 090223, 18 h
Protocol: as §1

Vibrio brasiiensis = assay: microbe, parasite or virus in culture; assay type: cell-based; settings: 18 h
Protocol: as §1

Vibrio cholerae = assay: microbe, parasite or virus in culture; assay type: cell-based; settings: 18 h
Protocol: as §1

Vibrio harveyi = assay: microbe, parasite or virus in culture; assay type: cell-based; settings: 18 h
Protocol: as §1

E. Coli 08032813 = assay: MIC, two-fold broth microdilution; assay type: cell-based; settings: Gram-negative; two-fold broth microdilution, MH broth, 37 °C, 18 h; mean of three independent experiments in duplicates
Protocol: as §1

[7] = test system: Staphylococcus epidermidis; assay: MIC, two-fold broth microdilution; assay type: cell-based; settings: Gram-positive; two-fold broth microdilution, MH broth, 37 °C, 18 h; mean of three independent experiments in duplicates
Protocol: as §1

Vibrio Parahaemolyticus = assay: MIC, two-fold broth microdilution; assay type: cell-based; settings: Aquatic pathogenic bacteria; two-fold broth microdilution, 37 °C, 18 h; mean of three independent experiments in duplicates
Protocol: as §1

trypsin = assay: Trypsin inhibition assay (NBLAN hydrolysis, Dixon method); assay type: biochemical; settings: 50 mM Tris–HCl pH 7.8, trypsin 0.1 mg/mL, 5 min pre-incubation at 37 °C, substrate NBLAN 48, 96, 192 μg/mL, 405 nm
Protocol: The inhibition effect on the hydrolysis of synthetic chromogenic substrate by trypsin was assayed in 50 mM Tris–HCl, pH 7.8 buffer at room temperature. The trypsin of final concentration of 0.1 mg/mL and different amounts of the hybrid peptide (final concentrations ranging from 0 to 0.16 μg/mL) were pre-incubated for 5 min at 37 °C. N-α-Benzoyl-DL-arginine p-nitroanilide hydrochloride (NBLAN) was used as a substrate for trypsin. The reaction was initiated by the addition of NBLAN with a final concentration of 48, 96 and 192 μg/mL, respectively. The formation of yellow product, p-nitroaniline was monitored continuously at 405 nm[61]. The inhibition constant Ki of the hybrid peptides were determined according to the method of Dixon (1953)[62].

E. coli 08040726 [8] = assay: Bacterial killing kinetic assay, colony counting; assay type: cell-based
Protocol: The bacterial killing kinetics of the hybrid peptides against E. coli 08040726 was determined by counting the changes in the viable bacterial clones after peptide treatment. The experiment was carried out according to the method described previously with minor modifications. Fresh colonies of the bacteria were incubated in MH broth at 37 °C for 12 h and diluted to 10^6 CFU/in fresh MH broth. The hybrid peptide was added to the bacterial suspension with a final concentration of 1x and 5x corresponding MICs, and incubated at 37 °C for 0, 10, 20, 30, 45, 60, 90, 120, and 180 mins. At each time point, aliquots (50 μL) were removed and diluted with fresh MH broth for 1000 times. […] of the dilutions were coated on MH agar plates, incubated overnight at 37 °C, and the viable colonies were counted. Ampicillin was used as positive control and sterile deionized water was used as negative control.

[9] = test system: established C. albicans biofilm; assay: Biofilm disruption assay, established biofilm (XTT, PI/SYBR Green I); assay type: cell-based
Protocol: TIH3F that has the best antifungal activity among the four peptides was chosen to examine the effect on the C. albicans biofilm formation and the established biofilm using previously described method with minor modifications. In the biofilm inhibition assay, after the incubation at 35 °C, C. Albicans was diluted to 1 × 10^6 CFU/mL in RPMI-1640 medium. Then 2 mL culture was added to each well of 6-well plates with coverslips at the bottom, and incubated at 35 °C in a humid chamber for 3 h. Non-adherent cells were then washed away by PBS, and series concentrations of TIH3F (0, 1, 2, 4 μg/mL) were added into the plate, with amphotericin B as control. The formation of the biofilm was determined by the XTT Cell Proliferation and Cytotoxicity Kit (KeyGEN BioTECH, Nanjing, China) after 36-h incubation. In the biofilm disruption assay, the biofilm was preformed as described above but with a longer incubation time up to 72 h. Then TIH3F and amphotericin B of series concentrations (0, 2.5, 5, 10, 25, 50 μg/mL) was added after non-adherent cells were washed out. The measurement of remaining biofilm was then determined. In order to further confirm the antifungal effect of TIH3F against C. albicans encased in biofilms, the established biofilm was treated with TIH3F (0, 5, 50 μg/mL), washed three times with PBS, and finally stained with 1 mL 1000-fold diluted PI/SYBR Green I at 30 °C in the dark for 20 min. After washing with PBS, the plate was immediately photographed with fluorescence microscope.

CC[C@H](C)[C@@H]1NC(=O)[C@H](CO)NC(=O)[C@H](CCCCN)NC(=O)[C@H]([C@@H](C)O)NC(=O)[C@H](Cc2c[nH]c3ccccc23)NC(=O)[C@@H](NC(=O)[C@H](Cc2ccccc2)NC(=O)[C@H](CCCCN)NC(=O)[C@H](CCCCN)NC(=O)[C@H](Cc2ccccc2)NC(=O)[C@H](C)NC(=O)[C@H](CCCNC(=N)N)NC(=O)[C@H](CCCNC(=N)N)NC(=O)[C@H](Cc2ccccc2)NC(=O)[C@H](CO)NC(=O)[C@H](CCCCN)NC(=O)[C@H](Cc2ccccc2)NC(=O)[C@H](Cc2ccccc2)NC(=O)[C@H](CCCNC(=N)N)NC(=O)[C@H](CCCCN)NC(=O)[C@H](Cc2ccccc2)NC(=O)[C@H](Cc2ccccc2)NC(=O)[C@@H](N)CCCCN)CSSC[C@@H](C(=O)O)NC(=O)[C@@H]2CCCN2C(=O)[C@H](CCCCN)NC(=O)[C@@H]2CCCN2C(=O)[C@@H]2CCCN2C1=O [H3TIF] (H-KFFKRFFKSFRRAFKKFCWTKSIPPKPC-OH; disulfide 18-28)
MIC E. Coli 08040726 (second line with this strain number) (E. coli 08040726 [1]): — (no detectable activity in MIC assay in dose of 200 µg/mL or in trypsin inhibition assay at concentration of 160 μg/mL)
MIC Aeromonas sobria (Aeromonas sobria): 18.75 µg/mL (≈ 5.27 µM)
MIC Aeromonas veronii (Aeromonas veronii): 9.38 µg/mL (≈ 2.64 µM)
MIC Bacillus subtilis 08042313 [2]: 37.5 µg/mL (≈ 10.5 µM)
MIC Candida albicans 08030102 [3]: 4.69 µg/mL (≈ 1.32 µM)
MIC Candida glabrata 08A802 (Candida glabrata 08A802): 9.38 µg/mL (≈ 2.64 µM)
MIC E. Coli 08032823 (E. Coli 08032823): 37.5 µg/mL (≈ 10.5 µM)
MIC Edwardsiella tarda (Edwardsiella tarda): — (no detectable activity in MIC assay in dose of 200 µg/mL or in trypsin inhibition assay at concentration of 160 μg/mL)
MIC Enterococcus faecium 08052315 [4]: 9.38 µg/mL (≈ 2.64 µM)
MIC Escherichia coli ATCC25922 [5]: 37.5 µg/mL (≈ 10.5 µM)
MIC K. Pneumoniae 08031012 (K. Pneumoniae 08031012): — (no detectable activity in MIC assay in dose of 200 µg/mL or in trypsin inhibition assay at concentration of 160 μg/mL)
MIC K. Pneumoniae 08040202 (K. Pneumoniae 08040202): — (no detectable activity in MIC assay in dose of 200 µg/mL or in trypsin inhibition assay at concentration of 160 μg/mL)
MIC Nocardia asteroides 08052412 [6]: 4.69 µg/mL (≈ 1.32 µM)
MIC P. Aeruginosa 08021015 (P. Aeruginosa 08021015): — (no detectable activity in MIC assay in dose of 200 µg/mL or in trypsin inhibition assay at concentration of 160 μg/mL)
MIC Proteus mirabilis 1376 (Proteus mirabilis 1376): — (no detectable activity in MIC assay in dose of 200 µg/mL or in trypsin inhibition assay at concentration of 160 μg/mL)
MIC S. Aureus 08032615 (S. Aureus 08032615): — (no detectable activity in MIC assay in dose of 200 µg/mL or in trypsin inhibition assay at concentration of 160 μg/mL)
MIC S. Aureus 08032706 (S. Aureus 08032706): — (no detectable activity in MIC assay in dose of 200 µg/mL or in trypsin inhibition assay at concentration of 160 μg/mL)
MIC S. Aureus 08032810 (S. Aureus 08032810): — (no detectable activity in MIC assay in dose of 200 µg/mL or in trypsin inhibition assay at concentration of 160 μg/mL)
MIC S. Maltophilia 090223 (S. Maltophilia 090223): 4.69 µg/mL (≈ 1.32 µM)
MIC Vibrio brasiiensis (Vibrio brasiiensis): 4.69 µg/mL (≈ 1.32 µM)
MIC Vibrio cholerae (Vibrio cholerae): 9.38 µg/mL (≈ 2.64 µM)
MIC Vibrio harveyi (Vibrio harveyi): 18.75 µg/mL (≈ 5.27 µM)
MIC E. Coli 08032813 (E. Coli 08032813): — (no detectable activity in MIC assay in dose of 200 µg/mL or in trypsin inhibition assay at concentration of 160 μg/mL)
MIC Staphylococcus epidermidis [7]: — (no detectable activity in MIC assay in dose of 200 µg/mL or in trypsin inhibition assay at concentration of 160 μg/mL)
MIC Vibrio Parahaemolyticus (Vibrio Parahaemolyticus): 2.37 µg/mL (≈ 0.667 µM)
Ki (trypsin): 6.5 µM
time of killing toward E. coli (E. coli 08040726 [8]; 1xMIC): ≤ 2 h
time of killing toward E. coli (E. coli 08040726 [8]; 5xMIC): ≤ 0.5 h
damage of established C. albicans biofilm ([9]; 5 μg/mL, biofilm preformed 72 h, XTT metabolic activity, Fig. 2B): evident antifungal activity
killing of C. albicans in preformed biofilm ([9]; 50 μg/mL, PI/SYBR Green I staining, fluorescence microscopy, Fig. 2C): destroy all of the cell membranes

— publication PMC5453931, “Cathelicidin-trypsin inhibitor loop conjugate represents a promising antibiotic candidate with protease stability” (Scientific Reports, 2017)
